Measurements taken from ChEMBL document CHEMBL1158428, “The influence of double bond geometry in the inhibition of cyclooxygenases by sulindac derivatives” (Bioorg Med Chem Lett, 2009).
Active and inactive are the calls of the source. The rule behind the calls is not given here.

What was measured:
[1] = biological target: T1, Prostaglandin G/H synthase 2 (Homo sapiens) (UniProt P35354); assay: Inhibition of COX2
T1 sequence (whole entry): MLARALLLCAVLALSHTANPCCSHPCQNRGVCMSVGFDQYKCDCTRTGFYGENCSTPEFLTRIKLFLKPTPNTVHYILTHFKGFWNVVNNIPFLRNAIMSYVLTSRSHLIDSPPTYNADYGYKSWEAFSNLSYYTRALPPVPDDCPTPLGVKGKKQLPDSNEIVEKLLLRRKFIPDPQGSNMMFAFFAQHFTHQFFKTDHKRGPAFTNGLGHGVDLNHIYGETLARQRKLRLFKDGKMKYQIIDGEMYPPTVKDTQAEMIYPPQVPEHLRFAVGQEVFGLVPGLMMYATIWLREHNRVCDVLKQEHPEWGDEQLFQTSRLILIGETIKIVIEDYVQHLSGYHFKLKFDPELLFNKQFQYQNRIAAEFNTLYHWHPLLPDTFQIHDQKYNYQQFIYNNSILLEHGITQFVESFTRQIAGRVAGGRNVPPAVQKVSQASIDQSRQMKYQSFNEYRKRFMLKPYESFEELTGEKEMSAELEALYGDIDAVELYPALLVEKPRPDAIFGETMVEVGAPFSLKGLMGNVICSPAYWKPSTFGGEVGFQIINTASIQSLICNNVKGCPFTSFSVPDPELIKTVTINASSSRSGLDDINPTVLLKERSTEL

[2] = biological target: T2, Prostaglandin G/H synthase 1 (Ovis aries) (UniProt P05979); details: 115 nM
T2 sequence (whole entry): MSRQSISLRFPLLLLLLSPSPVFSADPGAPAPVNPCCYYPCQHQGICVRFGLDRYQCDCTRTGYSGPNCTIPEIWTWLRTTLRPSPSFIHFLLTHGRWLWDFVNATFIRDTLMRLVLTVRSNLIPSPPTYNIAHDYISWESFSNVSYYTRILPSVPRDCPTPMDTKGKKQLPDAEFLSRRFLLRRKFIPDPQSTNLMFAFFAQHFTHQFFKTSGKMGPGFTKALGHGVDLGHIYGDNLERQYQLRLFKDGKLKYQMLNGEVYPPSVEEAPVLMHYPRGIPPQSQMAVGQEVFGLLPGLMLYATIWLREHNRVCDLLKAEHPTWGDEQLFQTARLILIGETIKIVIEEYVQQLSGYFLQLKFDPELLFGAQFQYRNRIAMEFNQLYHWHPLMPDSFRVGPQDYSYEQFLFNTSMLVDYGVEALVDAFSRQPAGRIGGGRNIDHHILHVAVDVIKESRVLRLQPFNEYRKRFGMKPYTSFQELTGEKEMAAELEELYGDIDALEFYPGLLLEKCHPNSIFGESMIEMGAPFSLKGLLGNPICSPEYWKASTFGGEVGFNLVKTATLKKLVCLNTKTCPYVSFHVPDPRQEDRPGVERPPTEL
Description: Inhibition of ovine COX1 under saturated substrate level preincubated at 115 nM for 17 mins by TLC

Structure (SMILES)	Activity [1]	inhibition [2]
COc1ccc2c(c1)c(CC(=O)O)cn2C(=O)c1ccc(Cl)cc1	inactive	–
CSc1ccc(/C=C2/C(C)=C(CC(=O)O)c3cc(F)ccc32)cc1	–	75%
CSc1ccc(/C=C2/C=C(CC(=O)O)c3cc(F)ccc32)cc1	–	20%
